Experimental data from US7862798B2, “Vitamin-targeted imaging agents” (Endocyte, Inc., priority 2002, dated 2011).
Entries after “also recorded” stand apart in the source; their conditions may differ.

Columns and labels:
[1] = biological target: T1, folate receptor (FR) on KB cells (Homo sapiens, UniProt P15328); experiment: Concentration-dependent cell uptake (Scatchard analysis); format: binding; details: 2 hours at 37° C.
T1 construct: FR-positive KB cells were gently trypsinized; endogenous in cells; host or cells: KB cells
T1 sequence (P15328 25-234): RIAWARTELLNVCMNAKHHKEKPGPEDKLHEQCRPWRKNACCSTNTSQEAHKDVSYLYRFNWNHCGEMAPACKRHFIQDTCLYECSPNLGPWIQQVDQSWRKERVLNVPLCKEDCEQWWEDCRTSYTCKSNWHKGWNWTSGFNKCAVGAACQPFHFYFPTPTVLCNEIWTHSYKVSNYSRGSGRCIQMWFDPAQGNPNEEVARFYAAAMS
Procedure: KB cells were seeded in 12-well Falcon plates and allowed to form sub-confluent monolayers overnight. Following one rinse with 1 mL of fresh FERPMI/HIFCS, each well received 1 mL of FFRPMI/HIFCS containing increasing concentrations of ^99mTc-EC20. Cells were incubated for 2 hours at 37° C. and then rinsed four times with 1 mL of ice-cold PBS, pH 7.4. The monolayers were dissolved in 0.5 mL of PBS, pH 7.4 containing 1% sodium dodecyl sulfate for 15 min at room temperature and then counted for radioactivity using a Packard gamma counter. Protein content was determined as described above, and final tabulated values were expressed in terms of molecules of EC20 per cell.
The particular KB cells used were determined to bind a maximum of four million molecules of the folate radiopharmaceutical per cell.
This HPLC-purified radiolabeled material (Peak B material) was collected and then added to cultured KB cells.

FR-positive M109 tumors [2] = experiment: Tissue distribution, subcutaneous M109 tumors (Example 11)
Procedure: The ability of ^99mTc-EC20 to target tumors in vivo was assessed using a FR-positive M109 model.
Four to five week-old mice (Balb/c strain) were purchased from Harlan Sprague Dawley, Inc. (Indianapolis, Ind.) and were maintained on a folate-free diet for a total of three weeks prior to the experiment. Syngeneic, FR-positive M109 tumor cells (1×10^6 per animal) were inoculated in the subcutis of the right axilla two weeks prior to the experiment.
Animals received an approximate 40 μmol/kg i.v. dose of test article in 100 μL volume via a lateral tail vein during brief diethyl ether anesthesia. Four hours post-injection, animals were sacrificed by CO2 asphyxiation, and dissected. Selected tissues were removed, weighed, and counted to determine ^99mTc distribution. CPM values were decay-corrected, and results were tabulated as % injected dose per gram of wet weight tissue.

FR-positive M109 tumors [3] = experiment: Gamma scintigraphy; format: in vivo, Balb/c mice; details: 4 hr after i.v. administration, M109 tumor-bearing Balb/c mouse
Procedure: Whole body image acquisition was performed for 1 minute at a count rate of 50-75,000 counts per minute using a Technicare Omega 500 Sigma 410 Radioisotope Gamma Camera. All data were analyzed using a Medasys MS-DOS-based computer equipped with Medasys Pinnacle software.

[4] = Serum protein binding (ultrafiltration), rat serum; format: in vitro ADME; details: room temperature, ultrafiltration 30,000 NMWL
Procedure: Fresh rat serum, and commercial male human serum (type AB donors, Sigma Chemical Co.) were used to evaluate in vitro binding of ^99mTc˜EC20 to serum proteins. One minute after ^99mTc-EC20 was mixed with 1 mL of serum at room temperature, 0.3 mL of the serum solution was transferred to a clean Amicon Centrifree® ultrafiltration device (30,000 NMWL) in triplicate. Within one minute of loading the centrifuge with the serum solution, the device was spun at 1000×g for 20 minutes at 20° C. 50 μL samples of the original solution, and of the filtrate from each device, was transferred to a clean tube and counted in an automatic gamma counter. A control solution of ^99mTc˜EC20 mixed with 1 mL of normal saline was ultrafiltered in an identical fashion. The percentage of free ^99mTc was calculated for each of the three samples.

[5] = test system: FR-positive M109 and FR-negative 4T1 tumors; experiment: Tissue distribution, M109 and 4T1 tumor models (Example 15); format: in vivo, Balb/c mice; details: four hours post i.v. injection
Procedure: The protocols used in this example are similar to those described in Example 11.
Syngeneic, FR-positive M109 tumor cells (2×10^6 Po per animal) or FR-negative 4T1 cells (5×10^5 Po per animal) were inoculated subcutaneously in 100 μl of folate-free RPMI-1640 containing 1% syngeneic mouse serum.
Sixteen days after tumor cell inoculation, the animals were injected intravenously with 500 or 1800 nmoles/kg of EC20 for M109 tumor-bearing animals and 500 nmoles/kg of EC20 for 4T1 tumor-bearing animals (3 mice per dose group). All injections were in 100 μl volumes. […] Selected tissues (heart, lungs, liver, spleen, kidney, intestines, stomach, muscle, and tumor) were removed, weighed, and counted in an automatic gamma counter to determine ^99mTc distribution. Uptake of the radiopharmaceutical in terms of percentage injected dose of wet weight tissue (% ID/g) was calculated by reference to standards prepared from dilutions of the injected preparation.

[6] = HPLC speciation of the 99mTc-EC20 standard in saline over 6 hr; format: physicochemical; details: for Area Percent, Sum C and D / Area Percent, peak A (pertechnetate) / Area Percent, peak B (unknown) / Area Percent, peak C (isomer 1) / Area Percent, peak D (isomer 2): 99mTc-EC20 Standard
Procedure: The urinary HPLC speciation profile of ^99mTc-EC20 was obtained using Balb/c mice. Mice (˜20 g each) were injected with 1 mCi (6.7 nmol) of ^99mTc-EC20 via a lateral tail vein. Following a 1, 4, or 6 hour time period, groups of two mice were euthanized by CO2 asphyxiation and urine was collected. After filtration through a GV13 Millex filter, the radiochemical speciation was assessed using an HPLC system equipped with a Nova-Pak C18 3.9×150 mm column and a radiochemical detector. The system was isocratically eluted with 20% methanol containing 0.1% TFA at a flow rate of 1 mL/minute.
It was previously determined that the primary elimination route for ^111In-DTPA-Folate was via the urine. […] As shown in Table 4 (below), the radiochemical purity of the standard (sum of peaks C and D presumably corresponding to the syn and anti ^99mTc-EC20) remained constant at ˜93% over the 6 hr duration of this experiment. The amount of free ^99mTc in the standard (peak A) was ˜2%.

[7] = 4 hr post i.v., + Folic acid (100 equivalents)
[8] = 4 hr post intravenous injection

[NH-][C@@H](CNC(=O)CC[C@@H](NC(=O)c1ccc(NCc2cnc3nc(N)[nH]c(=O)c3n2)cc1)C(=O)O)C(=O)[N-][C@@H](CC(=O)O)C(=O)[N-][C@@H](C[S-])C(=O)O.[O]=[Tc+4] [^99mTc-EC20]
maximum molecules bound per cell [1]: four million | Kd ([1]; read-out: KD of binding (Scatchard analysis)): 3.2 nM | Blood (FR-positive M109 tumors [2]; [7]): 0.09 ± 0.02 % Injected Dose per Gram Tissue | Heart (FR-positive M109 tumors [2]; [7]): 0.08 ± 0.01 % Injected Dose per Gram Tissue | Intestine (FR-positive M109 tumors [2]; [7]): 2.93 ± 1.49 % Injected Dose per Gram Tissue | Kidney (FR-positive M109 tumors [2]; [7]): 5.64 ± 2.13 % Injected Dose per Gram Tissue | Liver (FR-positive M109 tumors [2]; [7]): 1.15 ± 0.22 % Injected Dose per Gram Tissue | Lung (FR-positive M109 tumors [2]; [7]): 0.31 ± 0.26 % Injected Dose per Gram Tissue | Muscle (FR-positive M109 tumors [2]; [7]): 0.06 ± 0.02 % Injected Dose per Gram Tissue | Spleen (FR-positive M109 tumors [2]; [7]): 0.38 ± 0.33 % Injected Dose per Gram Tissue | Stomach (FR-positive M109 tumors [2]; [7]): 3.35 ± 5.19 % Injected Dose per Gram Tissue | Tumor (FR-positive M109 tumors [2]; [7]): 0.45 ± 0.18 % Injected Dose per Gram Tissue | Tumor/Blood (FR-positive M109 tumors [2]; [7]): 4.70 ± 1.30 | Blood (FR-positive M109 tumors [2]; [8]): 0.34 ± 0.03 % Injected Dose per Gram Tissue | Heart (FR-positive M109 tumors [2]; [8]): 1.57 ± 0.26 % Injected Dose per Gram Tissue | Intestine (FR-positive M109 tumors [2]; [8]): 2.56 ± 0.61 % Injected Dose per Gram Tissue | Kidney (FR-positive M109 tumors [2]; [8]): 138 ± 12.4 % Injected Dose per Gram Tissue | Liver (FR-positive M109 tumors [2]; [8]): 3.56 ± 0.25 % Injected Dose per Gram Tissue | Lung (FR-positive M109 tumors [2]; [8]): 2.22 ± 0.63 % Injected Dose per Gram Tissue | Muscle (FR-positive M109 tumors [2]; [8]): 0.67 ± 0.20 % Injected Dose per Gram Tissue | Spleen (FR-positive M109 tumors [2]; [8]): 0.95 ± 0.15 % Injected Dose per Gram Tissue | Stomach (FR-positive M109 tumors [2]; [8]): 1.45 ± 0.55 % Injected Dose per Gram Tissue | whole-body gamma image, localization of radiotracer (FR-positive M109 tumors [3]): localizes the gamma radiation to the two kidneys (K) and the M109 tumor mass; also recorded: Only the kidneys (K) and tumor (T) exhibit significant accumulation | associated with the >30 kDa serum protein fraction [4]: 69% | uptake in FR-negative 4T1 tumors lower than in FR-positive M109 tumors [5]: 7.6 fold | uptake in normal tissues, except kidney [5]: low | Area Percent, Sum C and D ([6]; 0 hr): 93.5 Area Percent | Area Percent, peak A (pertechnetate) ([6]; 0 hr): 2 Area Percent | Area Percent, peak B (unknown) ([6]; 0 hr): 4.5 Area Percent | Area Percent, peak C (isomer 1) ([6]; 0 hr): 15.5 Area Percent | Area Percent, peak D (isomer 2) ([6]; 0 hr): 78 Area Percent | Area Percent, Sum C and D ([6]; 1 hr): 93.4 Area Percent | Area Percent, peak A (pertechnetate) ([6]; 1 hr): 2.1 Area Percent | Area Percent, peak B (unknown) ([6]; 1 hr): 4.5 Area Percent | Area Percent, peak C (isomer 1) ([6]; 1 hr): 15.7 Area Percent | Area Percent, peak D (isomer 2) ([6]; 1 hr): 77.7 Area Percent | Area Percent, Sum C and D ([6]; 6 hr): 93.4 Area Percent | Area Percent, peak A (pertechnetate) ([6]; 6 hr): 1.8 Area Percent | Area Percent, peak B (unknown) ([6]; 6 hr): 4.8 Area Percent | Area Percent, peak C (isomer 1) ([6]; 6 hr): 15.9 Area Percent | Area Percent, peak D (isomer 2) ([6]; 6 hr): 77.5 Area Percent | radiochemical purity of the standard (sum of peaks C and D) ([6]; constant over the 6 hr duration, saline solution): ~93% | free 99mTc in the standard (peak A) ([6]; saline solution): ~2%
